Measured values reported in the supplement of paper PMC10627819.

Experiments:
S. pneumoniae D39V [1] = assay: fitness (endpoint OD595 vs no drug) (fraction); higher = more growth
Method in brief: (§1)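 At 37 °C, bacteria in TSB, LB Lennox or CY were grown in 384-well plates from a starting OD595 of 0.01. OD595 was measured every 30 min for 14 h, with the first reading used as background. Fitness is the optical density at the switch to stationary phase as a fraction of the robust mean of no-drug control wells, capped at 1.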

B. subtilis 168 [2] = assay: as above
Method in brief: as §1

S. aureus Newman = assay: Bliss interaction score (quartile over a dose matrix) (fitness difference); higher = more antagonism (negative = synergy)
Method in brief: (§2)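 Fitness was derived from optical density at entry into stationary phase, divided by the robust mean of the no-drug wells on the same plate. That reading was taken as OD595, and the ratio was capped at 1. Single-drug fitness was inferred from the combination data. The Bliss score, observed fitness minus the expected product of single-drug fitness, was summarised as quartiles over technical, biological and donor/recipient replicates.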

S. pneumoniae D39V [3] = assay: as above
Method in brief: as §2

S. aureus DSM 20231 = assay: as above
Method in brief: as §2

B. subtilis 168 [4] = assay: as above
Method in brief: as §2
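Throughout, for Bliss interaction score (quartile over a dose matrix): first quartile when negative (synergy) and third quartile when positive (antagonism).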

C[C@H]1c2cccc(O)c2C(=O)C2=C(O)[C@]3(O)C(=O)C(C(N)=O)=C(O)[C@@H](N(C)C)[C@@H]3[C@@H](O)[C@@H]21 [Doxycycline] + CN(C)C(=O)C(CCN1CCC(O)(c2ccc(Cl)cc2)CC1)(c1ccccc1)c1ccccc1 [Loperamide]
fitness, S. pneumoniae D39V [1], one replicate
Settings | first compound 0.003875 µg/mL | first compound 0.00775 µg/mL | first compound 0.0155 µg/mL | first compound 0.031 µg/mL | first compound 0.062 µg/mL
partner 20 µg/mL | ≥ 1 | ≥ 1 | – | 0.976 | 0.836
partner 40 µg/mL | ≥ 1 | ≥ 1 | – | 0.942 | 0.826
partner 68.57 µg/mL | – | – | 0.858 | 0.875 | 0.966
partner 80 µg/mL | ≥ 1 | ≥ 1 | – | 0.973 | 0.764

Settings | fitness
B. subtilis 168 [2], first compound 0.02 µg/mL, partner 25 µg/mL | 0.544
B. subtilis 168 [2], first compound 0.02 µg/mL, partner 50 µg/mL | 0.0585
B. subtilis 168 [2], first compound 0.02 µg/mL, partner 100 µg/mL | 0.0358
B. subtilis 168 [2], first compound 0.04 µg/mL, partner 25 µg/mL | 0.0527
B. subtilis 168 [2], first compound 0.04 µg/mL, partner 50 µg/mL | 0.0434
B. subtilis 168 [2], first compound 0.04 µg/mL, partner 100 µg/mL | 0.0354
B. subtilis 168 [2], first compound 0.08 µg/mL, partner 25 µg/mL | 0.0276
B. subtilis 168 [2], first compound 0.08 µg/mL, partner 50 µg/mL | 0.0338
B. subtilis 168 [2], first compound 0.08 µg/mL, partner 100 µg/mL | 0.0354
S. pneumoniae D39V [1], first compound 0.0155 µg/mL, partner 17.14 µg/mL | 0.874
S. pneumoniae D39V [1], first compound 0.0155 µg/mL, partner 20 µg/mL | ≥ 1
S. pneumoniae D39V [1], first compound 0.0155 µg/mL, partner 34.28 µg/mL | 0.861
S. pneumoniae D39V [1], first compound 0.0155 µg/mL, partner 40 µg/mL | ≥ 1
S. pneumoniae D39V [1], first compound 0.0155 µg/mL, partner 80 µg/mL | ≥ 1
S. pneumoniae D39V [1], first compound 0.031 µg/mL, partner 17.14 µg/mL | 0.939
S. pneumoniae D39V [1], first compound 0.031 µg/mL, partner 34.28 µg/mL | 0.932
S. pneumoniae D39V [1], first compound 0.062 µg/mL, partner 17.14 µg/mL | 0.864
S. pneumoniae D39V [1], first compound 0.062 µg/mL, partner 34.28 µg/mL | 0.895

Settings | Bliss interaction score
B. subtilis 168 [4] | -0.189
S. aureus DSM 20231 | 0.107
S. aureus Newman | 0.0172
S. pneumoniae D39V [3] | 0.193

C[C@@H]1O[C@@H]1P(=O)(O)O [Fosfomycin] + CCC(C)C1C(=O)NC(=C)C(=O)NC(C(=O)NC(CSCC(C(=O)N1)NC(=O)/C(=C/C)/NC(=O)C(C(C)CC)N)C(=O)NC2C(SCC(NC(=O)CNC(=O)C3CCCN3C2=O)C(=O)NC(CCCCN)C(=O)NC4C(SCC(NC(=O)CNC(=O)C(NC(=O)C(NC(=O)C(NC(=O)CNC4=O)C)CC(C)C)CCSC)C(=O)NC(CC(=O)N)C(=O)NC(CCSC)C(=O)NC(CCCCN)C(=O)NC5C(SCC6C(=O)NC(C(=O)NC(CSC(C(C(=O)N6)NC(=O)C(NC5=O)C)C)C(=O)NC(CO)C(=O)NC(C(C)CC)C(=O)NC(CC7=CN=CN7)C(=O)NC(C(C)C)C(=O)NC(=C)C(=O)NC(CCCCN)C(=O)O)CC8=CN=CN8)C)C)C)CC(C)C [Nisin]
fitness, main component drawn
Settings | partner 0.4275 µg/mL | partner 0.5 µg/mL | partner 0.855 µg/mL | partner 1 µg/mL | partner 1.6 µg/mL | partner 1.71 µg/mL | partner 2 µg/mL | partner 3.2 µg/mL | partner 6.4 µg/mL
B. subtilis 168 [2], first compound 1.562 µg/mL | – | 0.712 | – | 0.609 | – | – | 0.45 | – | –
B. subtilis 168 [2], first compound 3.124 µg/mL | – | 0.59 | – | 0.542 | – | – | 0.368 | – | –
B. subtilis 168 [2], first compound 6.248 µg/mL | – | 0.463 | – | 0.397 | – | – | 0.285 | – | –
S. pneumoniae D39V [1], first compound 1.25 µg/mL | ≥ 1 | – | ≥ 1 | – | 0.0178 | 0.0788 | – | 0.0247 | 0.0308
S. pneumoniae D39V [1], first compound 2.5 µg/mL | 0.942 | – | 0.998 | – | 0.0062 | 0.0945 | – | 0.0256 | 0.0213
S. pneumoniae D39V [1], first compound 5 µg/mL | 0.852 | – | 0.889 | – | 0.0119 | 0.111 | – | 0.0102 | 0.0062

fitness, B. subtilis 168 [2], one replicate, main component drawn
Settings | partner 1.25 µg/mL | partner 1.6 µg/mL | partner 2.5 µg/mL | partner 3.2 µg/mL | partner 4 µg/mL | partner 5 µg/mL | partner 6.4 µg/mL | partner 8 µg/mL | partner 16 µg/mL
first compound 1.562 µg/mL | 0.687 | 0.577 | 0.527 | 0.0483 | 0.0272 | 0.0426 | 0.0336 | 0.0224 | 0.0164
first compound 3.124 µg/mL | 0.613 | 0.469 | 0.303 | 0.024 | 0.0425 | 0.0431 | 0.0247 | 0.0352 | 0.0164
first compound 6.248 µg/mL | 0.513 | 0.298 | 0.127 | 0.0136 | 0.0038 | 0.0232 | 0.0329 | 0.007 | 0.0049

main component drawn
Settings | Bliss interaction score
B. subtilis 168 [4] | -0.0482
S. aureus DSM 20231 | 0.0654
S. aureus Newman | -0.0541
S. pneumoniae D39V [3] | -0.0374

C[C@@H]1O[C@@H]1P(=O)(O)O [Fosfomycin] + CN(C)C(=O)C(CCN1CCC(O)(c2ccc(Cl)cc2)CC1)(c1ccccc1)c1ccccc1 [Loperamide]
fitness
Settings | first compound 1.25 µg/mL | first compound 1.562 µg/mL | first compound 2.5 µg/mL | first compound 3.124 µg/mL | first compound 5 µg/mL | first compound 6.248 µg/mL
B. subtilis 168 [2], partner 25 µg/mL | – | 0.743 | – | 0.625 | – | 0.534
B. subtilis 168 [2], partner 100 µg/mL | – | 0.0187 | – | 0.0366 | – | 0.011
S. pneumoniae D39V [1], partner 17.14 µg/mL | 0.957 | – | 0.952 | – | 0.722 | –
S. pneumoniae D39V [1], partner 20 µg/mL | ≥ 1 | – | 0.985 | – | 0.81 | –
S. pneumoniae D39V [1], partner 34.28 µg/mL | 0.954 | – | 0.961 | – | 0.74 | –
S. pneumoniae D39V [1], partner 40 µg/mL | ≥ 1 | – | ≥ 1 | – | 0.77 | –

S. pneumoniae D39V [1], partner 68.57 µg/mL, one replicate
Settings | fitness
first compound 1.25 µg/mL | 0.969
first compound 2.5 µg/mL | 0.515
first compound 5 µg/mL | 0.861

Settings | Bliss interaction score
B. subtilis 168 [4] | 0.305
S. aureus DSM 20231 | 0.116
S. aureus Newman | -0.0773
S. pneumoniae D39V [3] | 0.0632
